Measurements published in ChEMBL document CHEMBL5291721, “A preclinical secondary pharmacology resource illuminates target-adverse drug reaction associations of marketed drugs” (Nat Commun, 2023).

How the values were obtained:
[1] = target: T1, Muscarinic acetylcholine receptor M1 (Homo sapiens, UniProt P11229); format: functional, cell-based
T1 sequence (P11229 whole entry): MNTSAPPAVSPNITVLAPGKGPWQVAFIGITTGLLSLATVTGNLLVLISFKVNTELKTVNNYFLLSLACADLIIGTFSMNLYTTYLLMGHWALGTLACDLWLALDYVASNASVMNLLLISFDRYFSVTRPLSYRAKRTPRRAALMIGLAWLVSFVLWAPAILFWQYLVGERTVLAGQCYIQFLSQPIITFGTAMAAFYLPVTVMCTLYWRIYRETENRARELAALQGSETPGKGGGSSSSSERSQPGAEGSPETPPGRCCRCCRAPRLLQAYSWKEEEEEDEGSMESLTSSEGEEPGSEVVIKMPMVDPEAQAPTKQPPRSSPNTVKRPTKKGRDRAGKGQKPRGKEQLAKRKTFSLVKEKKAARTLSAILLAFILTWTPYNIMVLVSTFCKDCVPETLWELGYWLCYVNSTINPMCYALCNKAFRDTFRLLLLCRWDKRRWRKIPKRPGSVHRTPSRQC

[2] = target: Vascular endothelial growth factor receptor 2 (Homo sapiens, UniProt P35968); format: functional
Chain of Vascular endothelial growth factor receptor 2 (P35968 whole entry): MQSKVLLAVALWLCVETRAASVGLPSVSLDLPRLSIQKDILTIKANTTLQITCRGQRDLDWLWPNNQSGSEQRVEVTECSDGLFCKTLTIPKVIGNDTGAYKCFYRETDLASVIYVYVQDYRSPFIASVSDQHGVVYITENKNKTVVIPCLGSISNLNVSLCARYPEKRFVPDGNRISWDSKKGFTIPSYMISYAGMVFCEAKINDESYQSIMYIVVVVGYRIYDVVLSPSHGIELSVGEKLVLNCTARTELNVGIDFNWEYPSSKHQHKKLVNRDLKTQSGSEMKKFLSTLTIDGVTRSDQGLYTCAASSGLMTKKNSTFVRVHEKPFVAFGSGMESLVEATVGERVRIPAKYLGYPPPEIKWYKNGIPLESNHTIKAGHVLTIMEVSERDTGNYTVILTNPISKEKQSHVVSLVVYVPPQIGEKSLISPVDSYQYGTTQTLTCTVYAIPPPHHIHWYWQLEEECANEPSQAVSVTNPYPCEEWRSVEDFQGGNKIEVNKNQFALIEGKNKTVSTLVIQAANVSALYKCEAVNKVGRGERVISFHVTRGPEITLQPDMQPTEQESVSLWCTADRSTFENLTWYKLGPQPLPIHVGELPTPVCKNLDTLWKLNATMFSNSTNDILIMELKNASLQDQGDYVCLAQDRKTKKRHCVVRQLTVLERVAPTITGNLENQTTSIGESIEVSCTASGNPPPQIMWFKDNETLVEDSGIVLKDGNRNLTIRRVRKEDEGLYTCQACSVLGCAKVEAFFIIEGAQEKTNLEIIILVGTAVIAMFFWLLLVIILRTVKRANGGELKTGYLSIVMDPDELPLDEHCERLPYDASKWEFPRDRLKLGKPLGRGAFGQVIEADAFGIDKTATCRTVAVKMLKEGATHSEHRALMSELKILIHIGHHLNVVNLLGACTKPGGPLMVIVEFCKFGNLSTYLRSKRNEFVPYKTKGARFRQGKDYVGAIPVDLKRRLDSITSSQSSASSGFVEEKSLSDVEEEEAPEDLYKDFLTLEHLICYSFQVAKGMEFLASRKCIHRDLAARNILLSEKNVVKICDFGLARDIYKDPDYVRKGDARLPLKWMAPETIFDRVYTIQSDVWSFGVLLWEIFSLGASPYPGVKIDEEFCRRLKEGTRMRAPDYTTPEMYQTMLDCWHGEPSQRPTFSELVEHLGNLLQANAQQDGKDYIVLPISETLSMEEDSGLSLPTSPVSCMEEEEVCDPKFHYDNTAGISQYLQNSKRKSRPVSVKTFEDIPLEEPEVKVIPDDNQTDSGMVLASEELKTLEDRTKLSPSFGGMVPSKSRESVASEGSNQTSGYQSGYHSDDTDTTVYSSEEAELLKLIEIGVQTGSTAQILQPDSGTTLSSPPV

[3] = target: T2, Alpha-1A adrenergic receptor (Homo sapiens, UniProt P35348); format: functional, cell-based
T2 sequence (P35348 whole entry): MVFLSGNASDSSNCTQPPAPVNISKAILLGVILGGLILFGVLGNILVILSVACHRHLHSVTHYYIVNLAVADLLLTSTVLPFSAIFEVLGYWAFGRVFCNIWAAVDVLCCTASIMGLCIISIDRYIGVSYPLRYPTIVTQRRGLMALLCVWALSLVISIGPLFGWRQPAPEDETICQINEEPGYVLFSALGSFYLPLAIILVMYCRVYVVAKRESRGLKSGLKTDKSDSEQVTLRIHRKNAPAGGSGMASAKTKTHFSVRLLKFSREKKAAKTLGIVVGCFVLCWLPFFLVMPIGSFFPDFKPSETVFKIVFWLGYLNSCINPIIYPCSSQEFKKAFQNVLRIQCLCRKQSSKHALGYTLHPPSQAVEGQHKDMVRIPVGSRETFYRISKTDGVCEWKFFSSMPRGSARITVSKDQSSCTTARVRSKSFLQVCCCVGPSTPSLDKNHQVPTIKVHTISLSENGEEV

Adenosine receptor A3 = target: T3, Adenosine receptor A3 (Homo sapiens, UniProt P0DMS8)
T3 sequence (P0DMS8 whole entry): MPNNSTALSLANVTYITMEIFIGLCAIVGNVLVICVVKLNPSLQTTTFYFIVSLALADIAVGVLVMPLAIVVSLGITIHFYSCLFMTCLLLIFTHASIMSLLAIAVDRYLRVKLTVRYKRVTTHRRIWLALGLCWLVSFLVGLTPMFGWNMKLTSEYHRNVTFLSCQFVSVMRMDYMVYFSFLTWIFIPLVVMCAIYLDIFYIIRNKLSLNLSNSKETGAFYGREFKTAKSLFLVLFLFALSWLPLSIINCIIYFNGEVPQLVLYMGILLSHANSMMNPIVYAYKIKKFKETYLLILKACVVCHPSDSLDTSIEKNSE

Estrogen receptor = target: T4, Estrogen receptor (Homo sapiens, UniProt P03372)
T4 sequence (P03372 whole entry): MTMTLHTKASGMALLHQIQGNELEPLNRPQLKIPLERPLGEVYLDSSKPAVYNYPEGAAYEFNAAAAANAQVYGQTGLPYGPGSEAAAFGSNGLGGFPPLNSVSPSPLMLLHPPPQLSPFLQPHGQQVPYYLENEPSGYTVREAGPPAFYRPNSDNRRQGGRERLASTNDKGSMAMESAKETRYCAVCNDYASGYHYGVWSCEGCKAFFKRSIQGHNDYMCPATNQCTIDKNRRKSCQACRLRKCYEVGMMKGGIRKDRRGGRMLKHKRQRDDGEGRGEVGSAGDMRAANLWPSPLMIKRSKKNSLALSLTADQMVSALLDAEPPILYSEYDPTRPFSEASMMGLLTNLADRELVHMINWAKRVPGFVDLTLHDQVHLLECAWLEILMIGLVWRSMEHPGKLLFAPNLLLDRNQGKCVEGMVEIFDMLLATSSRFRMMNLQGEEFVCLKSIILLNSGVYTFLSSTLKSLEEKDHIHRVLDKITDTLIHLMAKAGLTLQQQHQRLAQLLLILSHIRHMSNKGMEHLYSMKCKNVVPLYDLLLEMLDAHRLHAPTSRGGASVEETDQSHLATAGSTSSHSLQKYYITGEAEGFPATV
Also: assay procedure not described here.

SMILES | AC50 [1] | AC50 [2] | AC50 [3] | AC50 (Adenosine receptor A3) | AC50 (Estrogen receptor)
C=CCN1CC[C@]23CCCC[C@H]2[C@H]1Cc1ccc(O)cc13 [LEVALLORPHAN] | > 30 µM | > 30 µM | > 30 µM | > 30 µM | 
Nc1ccc(C(=O)Oc2ccccc2)c(O)c1 [PHENYL AMINOSALICYLATE] | 17.1 µM | 23.2 µM | > 30 µM | 18.4 µM | > 30 µM
Cc1onc(-c2ccccc2)c1C(=O)N[C@@H]1C(=O)N2[C@@H]1SC(C)(C)[C@@H]2C(=O)O [OXACILLIN] | > 30 µM | > 30 µM | > 30 µM | > 30 µM | > 30 µM
CC(=O)Oc1cc(C(F)(F)F)ccc1C(=O)O [TRIFLUSAL] | > 30 µM | > 30 µM | > 30 µM | > 30 µM | 
Cc1ccccc1C(=O)Nc1ccc(C(=O)N2CCCC(N(C)C)c3ccccc32)cc1 (stereo not drawn) [MOZAVAPTAN] | 23.7 µM | > 30 µM | > 30 µM | > 30 µM | > 30 µM
CCOC(=O)C1=C[C@@H](OC(CC)CC)[C@H](NC(C)=O)[C@@H](N)C1 [OSELTAMIVIR] | > 30 µM | > 30 µM | > 30 µM | > 30 µM | 
CN1CCC(=C2c3ccccc3Sc3ccccc32)CC1 [PIMETHIXENE] | 0.0216 µM | > 30 µM | > 30 µM | 25.9 µM | > 30 µM
COc1c2ccoc2cc2oc(=O)ccc12 [BERGAPTEN] | > 30 µM | > 30 µM | > 30 µM | 23.8 µM | > 30 µM
CCc1nc(C(N)=O)c(Nc2ccc(N3CCC(N4CCN(C)CC4)CC3)c(OC)c2)nc1NC1CCOCC1 [GILTERITINIB] | > 0.3 µM |  | > 30 µM |  | > 30 µM
CC(C)(O)CNc1nc(Nc2ccnc(C(F)(F)F)c2)nc(-c2cccc(C(F)(F)F)n2)n1 [ENASIDENIB] | 23.9 µM | 20.5 µM | > 30 µM | 0.003 µM | > 30 µM
N#Cc1ccc2c(c1)N(CCCN1CCC(O)CC1)c1ccccc1S2 [PERICIAZINE] | 5.58 µM |  |  | > 30 µM | > 30 µM
C/C=C/C/C=C/CCC(=O)[C@H]1O[C@H]1C(N)=O [CERULENIN] | > 30 µM | > 30 µM | > 30 µM | > 30 µM | > 30 µM
